Assay results taken from paper PMC12458683, “Water-Based Pharmacophore Modeling in Kinase Inhibitor Design: A Case Study on Fyn and Lyn Protein Kinases” (Journal of Chemical Information and Modeling, 2025).

Legend:
Fyn (h) = target: T1, Fyn (h) (Homo sapiens, UniProt P06241); test: radiometric kinase assay ([gamma-33P]-ATP, filter binding), 9-point dilution; format: biochemical
T1 construct: Eurofins KinaseProfiler enzyme
From the text: radiometric kinase assay ([gamma-33P]-ATP, filter binding), 9-point dilution on Fyn (h)

Lyn (h) = target: T2, Lyn (h) (Homo sapiens, UniProt P07948); test: as above; format: biochemical
T2 construct: Eurofins KinaseProfiler enzyme
From the text: radiometric kinase assay ([gamma-33P]-ATP, filter binding), 9-point dilution on Lyn (h)

T1 sequence (P06241 2-537): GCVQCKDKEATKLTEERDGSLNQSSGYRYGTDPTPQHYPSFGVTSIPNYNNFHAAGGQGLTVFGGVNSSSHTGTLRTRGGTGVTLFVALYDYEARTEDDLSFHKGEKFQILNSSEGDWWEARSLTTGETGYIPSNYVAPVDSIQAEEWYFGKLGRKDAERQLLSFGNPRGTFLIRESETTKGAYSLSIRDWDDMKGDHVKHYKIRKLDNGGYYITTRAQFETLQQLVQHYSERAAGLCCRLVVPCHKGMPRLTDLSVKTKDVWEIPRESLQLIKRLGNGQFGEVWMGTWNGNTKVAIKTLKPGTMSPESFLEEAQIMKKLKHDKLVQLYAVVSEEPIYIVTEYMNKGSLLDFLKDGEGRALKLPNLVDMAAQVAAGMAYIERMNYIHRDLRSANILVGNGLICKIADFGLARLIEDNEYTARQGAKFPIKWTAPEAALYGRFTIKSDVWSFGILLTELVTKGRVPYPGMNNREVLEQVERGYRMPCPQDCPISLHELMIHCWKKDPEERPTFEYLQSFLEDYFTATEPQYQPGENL
T2 sequence (P07948 2-512): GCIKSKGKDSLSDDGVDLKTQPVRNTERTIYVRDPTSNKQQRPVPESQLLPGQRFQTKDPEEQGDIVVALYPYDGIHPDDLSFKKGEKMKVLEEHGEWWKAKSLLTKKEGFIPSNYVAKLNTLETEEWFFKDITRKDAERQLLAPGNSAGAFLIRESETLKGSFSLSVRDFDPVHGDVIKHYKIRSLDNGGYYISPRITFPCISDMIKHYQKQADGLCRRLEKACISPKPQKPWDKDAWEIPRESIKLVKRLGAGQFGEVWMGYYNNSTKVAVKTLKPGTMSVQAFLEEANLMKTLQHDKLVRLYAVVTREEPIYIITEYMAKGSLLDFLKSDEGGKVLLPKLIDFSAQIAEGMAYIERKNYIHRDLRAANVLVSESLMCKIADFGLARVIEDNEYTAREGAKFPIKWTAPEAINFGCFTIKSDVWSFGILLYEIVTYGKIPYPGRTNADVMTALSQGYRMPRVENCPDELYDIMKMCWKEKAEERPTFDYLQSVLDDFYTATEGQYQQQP

In the case of COc1cc(O)c2c(=O)c(-c3ccc(O[C@@H]4O[C@H](CO)[C@@H](O)[C@H](O)[C@H]4O)cc3)coc2c1 [compound 1], the IC50 (Fyn (h)) is reported as 8.66 µM and the IC50 (Lyn (h)) is reported as 4.39 µM.
